Measurements as given in US10660789B2, “1,4-dihydropyridine derivatives with HSP modulating activity” (Richter Gedeon NYRT., priority 2011, dated 2020).
Structures can show the parent of a compound that is named as a salt. Where two headings read alike, the source gives them in different places. Marks after values point to notes of the source that are not given here.

How the values were obtained:
Hsp70 promoter [1] = assay: Hsp promoter probing, Hsp70 promoter-YFP reporter, flow cytometry (Table 3); type: cell-based, mouse and human; set-up: key: +: co-inducing activity; −: silencing activity; 0: with the experimental methods applied no other HSP modulating effects could be identified; details: heat shock 42° C. 1 h, 16 h recovery; B16 or SHSY5Y reporter cells, cell line per value not stated
Method: (§1) The Hsp co-inducing effect of the compounds on stress response was tested on B16 mouse melanoma and SHSY5Y human neuroblastoma cell lines stably transfected with Hsp promoter probing plasmids. This kind of promoter probing, using the promoter region of a given gene conjugated with fluorescent protein is used as a best and fastest test system for finding drugs which modulate the activity of the gene followed by the given promoter (Wyshocka et al., Mol. Cel. Biochem. 215:153-156, 2000).
The Hsp encoding genes are transactivated through the binding of HSF to the heat shock element found on the DNA upstream of the Hsp genes, in the so called promoter region. In the absence of heat stress, the heat shock factors are present as monomers. Upon heat stress, however, the heat shock factors form trimers, which are the active components, able to bind to heat shock elements. Once HSF is bound to the heat shock element in the promoter of Hsp genes, the gene following the promoter region is transcriptionally active.
(§2) Reporter plasmids, containing the Hsp70 and/or Hsp25 promoter conjugated to either YFP or GFP (yellow or green fluorescent protein), were stably transfected into the cells and the expression of YFP or GFP was followed by flow cytometry. Cells were either kept at 37° C. or exposed to heat shock at 42° C. for 1 hour followed by a 16 hour recovery period at 37° C. in the presence or absence of different concentrations of the test compound. After recovery the expression of YFP or GFP which is in straight correlation with the promoter activity of Hsp70 or Hsp27 genes was followed by measuring the fluorescence intensity of the cells by flow cytometry. Fluorescence intensity is in straight correlation with the amount of fluorescent protein (GFP or YFP) produced under the control of hsp promoter. The mean fluorescence intensity of YFP or GFP produced is shown as “Hsp promoter activity”.
(§3) Cells were homogenously distributed on 6-well plates in 1×10^5 cells/well density. B16-pHsp25-GFP and B16-pHsp70-YFP melanoma cells were grown in RPMI-1640 medium supplemented with 10% Fetal bovine serum (FBS), penicillin (200 units/ml), streptomycin (200 μg/ml) and 2 mM L-Glutamine. For maintaining the SH-SY5Y-pHsp25-GFP and SH-SY5YpHsp70-YFP neuroblastoma cell lines Dulbecco's modified Eagle's medium (DMEM-F-12) containing 10% FBS, 2 mM L-Glutamine, penicillin (200 units/ml), streptomycin (200 μg/ml) and MEM non-essential amino acids were used. Before the treatments both cell lines were incubated at 37° C. in a saturated humidity atmosphere containing 95% air and 5% CO2. After 24 h incubation cells were pretreated with compounds of the invention in four different concentrations (usually in 3; 10; 20 and 50 μM) 30 min before the heat shock at 42° C. for 1 h and then incubated further at 37° C. for 16 h (recovery period). After this procedure cells were trypsinized and suspensed in 500 μl serum-free DMEM-F12 medium. The changes in cells' fluorescence were detected using BD FACSCalibur flow cytometer.

other Hsps = assay: Other in vitro HSP modulating effects (Table 3); type: cell-based, mouse and human; set-up: key: +: co-inducing activity; −: silencing activity; 0: with the experimental methods applied no other HSP modulating effects could be identified
Method: as §1, §2, §3
SY-SY5Y and B16 cells were extracted in NP-40 lysis buffer (PBS pH 7.4, 1% protease inhibitor coctail and 1% Triton X-100). The cell extracts were then constantly agitated at 4° C. for 2 h. The cell extracts were centrifuged at 12000×g for 30 min and supernatants were saved. After the protein concentration measurement 15 μg of total protein was separated by sodium dodecyl sulfate-polyacrylamide gel electrophoresis (SDS-PAGE) under reducing conditions according to the method of Laemmli. Proteins were blotted onto PVDF membrane. The blot was incubated overnight at 4° C. in the presence of mouse α-Hsp25, α-Hsp70, α-Hsp60 és α-Hsp90 monoclonal antibodies diluted in PBS. Then, the membrane was washed three times in PBS-0.05% Tween and incubated for 1 h in peroxidase-conjugated anti-mouse IgG antibody diluted 1:50000 in PBS containing 3% non-fat dry milk. The immune complexes were detected with chemo-luminescent substrate of peroxidase according to the supplier's instructions. Images taken from the membranes were analyzed using AlphaEase FC software.

Zucker obese rat = assay: Insulin resistance, Zucker obese rat; type: in vivo
Method: Insulin sensitizing activity of the compounds was tested in Zucker obese rat at three doses (10, 30 and 100 mg/kg), 6 weeks old Zucker obese (ZO) rats were adapted for a week before the administration of the compound. The animals were treated once a day for 5 days with compound Ex. 1 with 10, 30 and 100 mg/kg dose by stomach probe. The control group was treated with Klucel solution. The animals were kept in metabolic cage during the experiment, their food and drink consumption, the amount of urine and faeces was determined daily.
At the end of the treatment period the animals were fasted for 16 hours, the fasting plasma glucose level was determined. At the end the animals were sacrificed and different organs were taken for Hsp measurement.

Hsp25 promoter = assay: Hsp25 promoter-GFP reporter in SHSY5Y cells, flow cytometry; type: cell-based, human
Method: as §1, §2
The fluorescence intensity of GFP and YFP […].
Selectivity of the Hsp25 co-inducing activity of compound of Ex. 11 is shown on FIG. 3. […] The fluorescence intensity of GFP produced as a result of Hsp25 promoter activity was measured by flow cytometry.
(§4) Cells were homogenously distributed on 6-well plates in 1×10^5 cells/well density. B16-pHsp25-GFP and B16-pHsp70-YFP melanoma cells were grown in RPMI-1640 medium supplemented with 10% Fetal bovine serum (FBS), penicillin (200 units/ml), streptomycin (200 μg/ml) and 2 mM L-Glutamine. […] The changes in cells' fluorescence were detected using BD FACSCalibur flow cytometer.

Hsp25 = assay: Other in vitro effects, Hsp25 (Table 3); type: cell-based, mouse and human; set-up: key: +: co-inducing activity; −: silencing activity; 0: with the experimental methods applied no other HSP modulating effects could be identified
Method: as §1, §2, §4
SY-SY5Y and B16 cells were extracted in NP-40 lysis buffer (PBS pH 7.4, 1% protease inhibitor coctail and 1% Triton X-100). […] The immune complexes were detected with chemo-luminescent substrate of peroxidase according to the supplier's instructions. Images taken from the membranes were analyzed using AlphaEase FC software.

Hsp70 promoter [2] = assay: Hsp70 promoter-YFP reporter in B16 F-10 melanoma cells, flow cytometry; type: cell-based, mouse; details: stress induced, FIG. 4
Method: as §1
Reporter plasmids, containing the Hsp70 and/or Hsp25 promoter conjugated to either YFP or GFP (yellow or green fluorescent protein), were stably transfected into the cells and the expression of YFP or GFP was followed by flow cytometry. […] After recovery the expression of YFP or GFP which is in straight correlation with the promoter activity of Hsp70 or Hsp27 genes was followed by measuring the fluorescence intensity of the cells by flow cytometry. Fluorescence intensity is in straight correlation with the amount of fluorescent protein (GFP or YFP) produced under the control of hsp promoter. The mean fluorescence intensity of YFP or GFP produced is shown as “Hsp promoter activity”.
Some of the compounds are Hsp70 selective stress protein response silencers as shown on FIG. 4. […] The fluorescence intensity of YFP produced as a result of Hsp70 promoter activity was measured by flow cytometry. […]

Ca^2+ channel = assay: Hsp modulating versus Ca2+ antagonist effect
B16F10 melanoma cells = assay: Vincristine cytotoxicity in combination, B16F10 melanoma cells; type: cell-based; details: Mus musculus, read-out: IC50 of VR (50% inhibition of cell growth)
Method: Cells were homogenously distributed on 96-well plates in 5×10^3 cells/well density then incubated for 24 h at 37° C. On the next day cells were treated with compounds of the invention in 100 nM-200 μM concentration range for 24 h. The viability of the cells were measured using alamarBlue® assay kit according to the supplier's instructions.
The rationale for combination chemotherapy is to use drugs that work by different mechanisms of action, thereby decreasing the likelihood that resistant cancer cells will develop.

B16 melanoma cells = assay: Experimental metastatic melanoma, B16 cells i.v. in C57Bl/6 mice; type: in vivo, mouse; details: for drug-related mortality and weight loss: 10 mg/kg i.p. daily, tumor bearing mice; for In vivo efficacy: model in which efficacy was shown
Method: The anticancer activity was tested in C57Bl/6 mouse (B6), the best known syngeneic mouse model of experimental metastatic melanoma. C57Bl/6 mice injected with B16 melanoma cells subcutaneously or intramuscularly develop primary tumors that, in a part of the recipients, give rise to lung metastases. When the B16 cells are injected intravenously via the tail vein, a fraction of the tumor cells homes directly in the lung, where they develop into multiple independent tumor nodules termed “experimental metastases”. Although lung tumors are the most prominent, brain, liver and kidney tumors are also detectable in intravenously injected mice. Since the behavior of the tumor-bearing mice is quite uniform, the model is suitable for simultaneous testing of high numbers of drug candidates in a limited number of experimental animals.
The in vivo tumor experiments were performed with cultured B16 cells that were previously re-isolated from lung metastatic nodules, therefore their metastatic potential was kept optimal. The tumor cells liberated from the tumor mass by trypsin digestion were expanded in cell culture and stored in aliquots in liquid nitrogen, while the number of in vitro passages was kept to a minimum. In the experiments, B6 mice were injected with 100 000 B16 melanoma cells i.v. via the tail vein. The drug candidates were dissolved in physiological saline then they were administered i.p. in a volume of 100 ul. Daily treatment of tumor bearing mice started at day 7 after the tumor injection. The body weight of the mice was measured at day 1, 7, 14 and 21. The survival of the tumor bearing mice was recorded daily. All experiments were performed in accordance with national and European animal welfare guidelines. To prevent unnecessary suffering, moribund mice were euthanized.

Acute toxicity (LD50) = details: in vivo

COC(=O)C1=C(C)N(C)C(C)=C(C(=O)OC)C1c1ccc(C(F)(F)F)cc1 [Example 1, Dimethyl 1,2,6-trimethyl-4-(4-trifluoromethylphenyl)-1,4-dihydropyridine-3,5-dicarboxylate]
Hsp70 modulation (Hsp70 promoter [1]): +*
Other in vitro effects (other Hsps): 0****
fasting plasma glucose level (Zucker obese rat; 10, 30 and 100 mg/kg once a day for 5 days by stomach probe, 16 h fasted, FIG. 5A): improved fasting plasma glucose level
Hsp70 amount in brown adipose tissue (Zucker obese rat; 10, 30 and 100 mg/kg once a day for 5 days, Western blot, FIG. 5B): elevated Hsp70 amount in brown adipose tissue
In vivo efficacy (Zucker obese rat; model in which efficacy was shown): Insulin resistance
melting point: 159 to 160 °C

CCN1C(C)=C(C(=O)OC)C(c2ccc(C(F)(F)F)cc2)C(C(=O)OC)=C1C [Example 11, Dimethyl 1-ethyl-2,6-dimethyl-4-(4-trifluoromethylphenyl)-1,4-dihydropyridine-3,5-dicarboxylate]
activity of the promoter of the Hsp25 gene at 37° C. (Hsp25 promoter; 37° C.): does not affect the activity of the promoter of the Hsp25 gene at 37 °C
Hsp25 co-inducing activity (Hsp25 promoter; heat stress, FIG. 3): strong, concentration dependent co-inducer for Hsp25 stress protein
Other in vitro effects: Hsp25 (Hsp25): Hsp25+
melting point: 135 to 137 °C

CCC1=C(C(=O)OC)C(c2ccc(C(F)(F)F)cc2)C(C(=O)OC)=C(CC)N1C [Example 27, Dimethyl 2,6-diethyl-1-methyl-4-(triflouromethyl-phenyl)-1,4-dihydropyridine-3,5-dicarboxylate]
Hsp70 silencer activity (Hsp70 promoter [2]): strong concentration dependent silencer for stress induced Hsp70 gene activity
Ca antagonist effect (Ca^2+ channel): no Ca antagonist effect
IC50 (B16F10 melanoma cells; B16-F10, VR with Ex 27 at 10 μM): 0.4 nM
melting point: 136 to 138 °C

CC[C@]1(O)C[C@H]2CN(CCc3c([nH]c4ccccc34)[C@@](C(=O)OC)(c3cc4c(cc3OC)N(C=O)[C@H]3[C@@](O)(C(=O)OC)[C@H](OC(C)=O)[C@]5(CC)C=CCN6CC[C@]43[C@@H]65)C2)C1 [VR, vincristine, reference compound]
IC50 (B16F10 melanoma cells; B16-F10, VR treatment alone): 1.3 nM

COC(=O)C1=C(C)N(C)C(CCN(C)C)=C(C(=O)OC)C1c1ccc(C(F)(F)F)cc1.Cl (stereo not shown) [Example 14, Dimethyl 2-(2-dimethylaminoethyl)-1,6-dimethyl-4-(4-trifluoromethylphenyl)-1,4-dihydropyridine-3,5-dicarboxylate hydrochloride]
Other in vitro effects (other Hsps): 0
Increase in life span (B16 melanoma cells; 10 mg/kg i.p. daily from day 7 to day 29): 18%
Mean survival time (B16 melanoma cells; 10 mg/kg i.p. daily from day 7 to day 29, control 25.25+/−4.13 days): 29.91 ± 3.78 days
drug-related mortality and weight loss (B16 melanoma cells): did not produce drug-related mortality or weight loss
In vivo efficacy (B16 melanoma cells): Cancer mono-

COC(=O)C1=C(CCN2CCCCC2)N(C)C(CCN2CCCCC2)=C(C(=O)OC)C1c1ccc(C(F)(F)F)cc1 [Example 17, Dimethyl 1-methyl-2,6-bis-(2-piperidin-1-yl-ethyl)-4-(4-trifluoromethylphenyl)-1,4-dihydropyridine-3,5-dicarboxylate dihydrochloride]
Other in vitro effects: Hsp25 (Hsp25): Hsp25 0
Increase in life span (B16 melanoma cells; 1 mg/kg i.p. daily from day 7 to day 18): 23.1%
Mean survival time (B16 melanoma cells; 1 mg/kg i.p. daily from day 7 to day 18, FIG. 8): 31.0 ± 3.7 days
Increase in life span (B16 melanoma cells; 3 mg/kg i.p. daily from day 7 to day 18): 40.8%
Mean survival time (B16 melanoma cells; 3 mg/kg i.p. daily from day 7 to day 18, FIG. 8): 35.55 ± 3.80 days
Increase in life span (B16 melanoma cells; 10 mg/kg i.p. daily from day 7 to day 18): 53.7%
Mean survival time (B16 melanoma cells; 10 mg/kg i.p. daily from day 7 to day 18, FIG. 8): 38.10 ± 10.45 days
drug-related mortality and weight loss (B16 melanoma cells): did not produce drug-related mortality and statistically significant drug related weight loss
In vivo efficacy (B16 melanoma cells): Cancer mono-
LD50 (Acute toxicity (LD50)): 150 mg/kg

COC(=O)C1=C(C#N)NC(C)=C(C(=O)OC(C)C)C1c1cccc([N+](=O)[O-])c1 (stereo not shown) [Nilvadipine, reference compound]
index of EC50 HSP-modulating/Ca^2+ antagonist effect (Ca^2+ channel): about 1

COC(=O)C1=C(C)N(C)C(CCN(C)C)=C(C(=O)OC)C1c1cc(F)cc(F)c1.Cl (stereo not shown) [Example 26, Dimethyl 4-(3,5-difluorophenyl)-2-(2-dimethylamino-ethyl)-1,6-dimethyl-1,4-dihydropyridine-3,5-dicarboxylate hydrochloride]
Hsp70 modulation (Hsp70 promoter [1]): +
Other in vitro effects (other Hsps): 0
melting point: 201 to 203 °C
